Columns and labels:
[1] = tested on: chronic model of colon inflammation (established TNBS colitis); test: Study 2: established TNBS colitis, lipoxin A4 analog dosed orally after the third week of TNBS; assay type: in vivo, BALB/c mice; settings: 1 mg/kg orally, starting on week 3 after TNBS administration
Method: (§1) A model of chronic inflammation induced by 7 week administration of 2,4,6-trinitrobenzenesulfonic acid (TNBS) in escalating manner was used in these studies. This model results in inflammation-driven fibrosis that associates with significant increase in intestinal content of collagen.
(§2) The induction of chronic colitis was performed according the protocol proposed by Lawrance et al, Gastroenterology (2003) 125:1750-1761. Six- to eight-week-old female mice of the BALB/c strain were obtained from Charles River (Breeding Laboratories, Monza, Italy).
To test the influence of lipoxin analogs in the inflammatory and fibrotic response in animals with established colitis, in a second in vivo study lipoxin A4 analog (1 mg/kg) was dosed orally starting after the third week of administration of TNBS (same protocol as described above). Mice were examined weekly for weight loss, diarrhea and rectal bleeding. Two days after the last administration of TNBS, mice were killed and colons were removed and examined. The macroscopic appearance was analyzed considering the presence of indurations, edema, thickness and evidence of mucosal hemorrhage.
Neutrophil infiltration in the colon was monitored by measuring MPO activity using a spectrophotometric assay with trimethylbenzidine (TMB) as a substrate according to a previously published method. Activity is expressed as U per mg protein. […]

[2] = tested on: chronic model of colon inflammation (TNBS-induced chronic colitis); test: Study 1: chronic TNBS colitis, lipoxin A4 analog given daily together with TNBS; assay type: in vivo, BALB/c mice
Method: as §1, §2
In a first in vivo experiment, BALB/c mice of the control group (n=7) received weekly 0.1 mL of saline solution by intracolonic injections. Mice of the TNBS group (n=15) were treated for 8 weeks with escalating doses (0.5 to 1.25 mg, with a 0.25 mg increase every two weeks) of TNBS in 30% ethanol by intracolonic injections at weekly intervals. Mice of TNBS+lipoxin A4 analog group (n=15) received the same weekly TNBS administration as the TNBS-only group plus 1 mg/kg of the lipoxin A4 analog daily by intragastric administration. Mice were examined weekly for weight loss, diarrhea and rectal bleeding. Two days after the last administration of TNBS, mice were killed and colons were removed and examined. The macroscopic appearance was analyzed considering the presence of indurations, edema, thickness and evidence of mucosal hemorrhage.
Neutrophil infiltration in the colon was monitored by measuring MPO activity using a spectrophotometric assay with trimethylbenzidine (TMB) as a substrate according to a previously published method. Activity is expressed as U per mg protein.
For histologic examination, sections of the proximal, middle and distal colon from each animal were fixed in 10% formalin, embedded in paraffin, sectioned, and stained with haematoxylin and eosin (H&E) or Sirius Red. For the latter, sections were incubated for 30 minutes in 0.1% Sirius Red F3B containing saturated picric acid and 0.1% fast green. After rising twice with distilled water, sections were briefly dehydrated with 70% ethanol.
Images from colon sections were acquired with a BX60 microscope (Olympus Co., Rome, Italy), digitalized using a SPOT-2 camera (Diagnostic Instruments Inc., Sterling Heights, Mich.) with a resolution of 1315×1033 pixels and analyzed using a computerized image analysis system (Image Acquisition System Ver.005, Delta Sistemi, Rome, Italy).
Sections from the colon of each animal were examined in a blinded fashion. The degree of the inflammation and fibrosis was scored accordingly with an established method (Lawrance et al., supra; Neurath et al., J. Exp. Med. (1995) 182:1281-1290). Briefly, inflammation was scored as absent, mild, moderate or severe depending on the density and extent of inflammatory infiltrates, loss of goblet cells, and bowel wall thickening. Also, the fibrosis was scored as absent, mild, moderate or severe on the basis of the density and extent of the Sirius red-positive connective tissue staining, compared with the water-control mice.
Quantification of the expression of mouse gene in colon tissues and intestinal fibroblasts was performed by quantitative real-time polymerase chain reaction (RT-PCR) (Heid C A 1996), using sense and antisense primers indicated in Table 1. All PCR primers were designed using PRIMER3-OUTPUT software using published sequence data from the NCBI database. Total RNA was isolated (TRIzol reagent, Invitrogen srl, Milan, Italy) from specimens taken from distal colons and intestinal fibroblasts. One microgram of purified RNA was treated with Dnasel for 15 minutes at room temperature, followed by incubation at 95° C. for 5 minutes in the presence of 2.5 mmol/L EDTA. The RNA was reverse-transcribed with Superscript III (Invitrogen srl, Milan, Italy) in 20 μL reaction volume using random primers. […]

[3] = 1 mg/kg daily intragastric, seven weeks, quantitative RT-PCR

O=C([O-])COC[C@H](O)[C@H](O)/C=C/C=C/C#C/C=C/[C@H](O)COc1ccc(F)cc1.[Na+] [lipoxin A4 analog, sodium 2-((2S,3R,4E,6E,10E,12S)-13-(4-fluorophenoxy)-2,3,12-trihydroxytrideca-4,6,10-trien-8-ynyloxy)acetate]
efficacy when administered in a therapeutic manner (inflammatory and fibrotic response) [1]: effective
colon fibrosis development, morphometric analysis of Sirius red-stained colon ([2]; 1 mg/kg daily intragastric, administered for seven weeks, vs TNBS alone): significantly attenuated
colon expression of TGFβ mRNA (marker of colon fibrosis) [2, 3]: significantly attenuated
colon expression of fibronectin mRNA (marker of colon fibrosis) [2, 3]: significantly attenuated
colon expression of α-SMA mRNA (marker of colon fibrosis) [2, 3]: significantly attenuated
colon expression of αI collagen mRNA (marker of colon fibrosis) [2, 3]: significantly attenuated
colon inflammation ([2]; administered orally): attenuated
TGBβ protein in colon ([2]; in comparison to mice administered TNBS alone): reduced

— US20080119439A1, “Treatment and prevention of intestinal fibrosis” (Bayer Schering Pharma Aktiengesellschaft, priority 2006, published 2008)
